These molecules were tested against cAMP-dependent protein kinase catalytic subunit alpha (Bos taurus, UniProt P00517) (assay: Kinase Inhibition Assay). Settings: pH 7.5; 37 °C.

IC50 [µM] | SMILES
> 100 | Cn1sc(=O)n(Cc2ccccc2)c1=O [4-Benzyl-2-methyl-1,2,4-thiadiazolidine-3,5-dione]

These molecules were tested against Protein kinase C beta type (Rattus norvegicus, UniProt P68403) (assay: PKC Inhibition Assay). Settings: pH 7.5; 37 °C.
Experimental: Kinase activities were assayed in buffers containing substrate, enzyme, and inhibitor at 37 °C in the presence of 10 uM ATP/ [gamma-32P] ATP. 32P incorporation was measured with a scintillation counter. The IC50 is the inhibitor concentration at which a 50% of enzyme inhibition occurs.

Chain of Protein kinase C beta type (P68403 whole entry): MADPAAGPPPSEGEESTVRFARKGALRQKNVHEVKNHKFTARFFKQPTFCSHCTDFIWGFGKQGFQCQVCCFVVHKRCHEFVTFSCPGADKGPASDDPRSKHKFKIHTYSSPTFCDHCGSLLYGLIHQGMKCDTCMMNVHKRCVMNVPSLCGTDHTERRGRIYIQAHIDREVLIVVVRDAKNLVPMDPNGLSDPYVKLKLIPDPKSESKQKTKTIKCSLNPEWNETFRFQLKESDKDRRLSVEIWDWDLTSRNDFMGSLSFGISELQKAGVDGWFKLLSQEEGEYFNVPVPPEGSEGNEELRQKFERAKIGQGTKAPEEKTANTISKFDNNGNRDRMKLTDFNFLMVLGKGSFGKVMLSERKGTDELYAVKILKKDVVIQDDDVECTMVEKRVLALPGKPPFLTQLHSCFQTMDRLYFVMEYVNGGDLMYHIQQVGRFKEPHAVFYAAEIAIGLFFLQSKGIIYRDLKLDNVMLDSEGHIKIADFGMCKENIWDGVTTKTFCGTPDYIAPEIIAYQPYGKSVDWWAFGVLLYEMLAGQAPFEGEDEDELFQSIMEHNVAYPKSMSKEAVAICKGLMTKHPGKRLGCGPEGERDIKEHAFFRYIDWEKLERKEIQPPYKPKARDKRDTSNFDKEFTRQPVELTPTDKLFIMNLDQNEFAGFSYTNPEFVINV

IC50 [µM] | SMILES
> 100 | Cn1sc(=O)n(Cc2ccccc2)c1=O [4-Benzyl-2-methyl-1,2,4-thiadiazolidine-3,5-dione]

The molecules below were run against T1, Glycogen synthase kinase-3 beta [7-25] (Oryctolagus cuniculus, UniProt G1T8E2) (assay: GSK-3 Inhibition Assay). Settings: 37 °C.
T1 construct: 7-25
Experimental: 32P incorporation was measured with a scintillation counter. The GSK-3 beta activity was expressed in picomoles of phosphate incorporated in GS-1 per 20 min or in percentage of maximal activity.

IC50 [µM] | SMILES
3 | Cn1sc(=O)n(-c2cccc3ccccc23)c1=O [2-methyl-4-(1-naphthyl)-1,2,4-thiadiazolidine-3,5-dione]
4 | Cn1sc(=O)n(-c2ccc(F)cc2)c1=O [4-(4-Fluorophenyl)-2-methyl-1,2,4-thiadiazolidine-3,5-dione]
8 | O=c1sn(-c2ccccc2)c(=S)n1-c1ccccc1 [2,4-diphenyl-5-oxo-1,2,4-thiadiazolidine-3-thione]
5 | Cc1ccc(-n2c(=O)sn(C)c2=O)cc1 [4-(4-Methylphenyl)-2-methyl-1,2,4-thiadiazolidine-3,5-dione]
65 | CCn1sc(=N)n(-c2ccccc2)c1=O [2-Ethyl-3-oxo-4-phenyl-1,2,4-thiadiazolidin-5-imine]
20 | CCn1sc(=O)n(CC)c1=S [2,4-diethyl-3-thioxo-1,2,4-thiadiazolidin-5-one]
75 | CCNC(=O)/N=c1\sn(CC)c(=O)n1-c1ccccc1 [ethyl-(2-ethyl-3-oxo-4-phenyl-1,2,4-thiadiazolidin-5-ylidene)urea]
10 | CCn1c(=S)n(C)s/c1=N\c1cccnc1 [(5Z)-4-ethyl-2-methyl-5-(pyridin-3-ylimino)-1,2,4-thiadiazolidine-3-thione]
4 | Cn1sc(=O)n(-c2ccc(Cl)cc2)c1=O [4-(4-Chlorophenyl)-2-methyl-1,2,4-thiadiazolidine-3,5-dione]
100 | CCOC(=O)/N=c1\sn(C(=O)OCC)c(=S)n1-c1ccccc1 [ethyl (5Z)-5-[(ethoxycarbonyl)imino]-4-phenyl-3-sulfanylidene-1,2,4-thiadiazolidine-2-carboxylate]
10 | O=c1sn(Cc2ccccc2)c(=S)n1Cc1ccccc1 [2,4-Dibenzyl-5-oxo-1,2,4-thiadiazolidine-3-thione]
6 | Cn1sc(=O)n(-c2ccc(C(F)(F)F)cc2)c1=O [2-methyl-4-[4-(trifluoromethyl)phenyl]-1,2,4-thiadiazolidine-3,5-dione]
6 | CCn1sc(=O)n(Cc2ccccc2)c1=S [4-Benzyl-2-ethyl-5-oxo-1,2,4-thiadiazolidine-3-thione]

Same assay, conditions: pH 7.5; 37 °C

IC50 [µM] | SMILES
10 | O=c1sn(Cc2ccccc2)c(=O)n1Cc1ccccc1 [2,4-Dibenzyl-1,2,4-thiadiazolidine-3,5-dione]
10 | CCCn1sc(=O)n(CC)c1=O [4-Ethyl-2-propyl-1,2,4-thiadiazolidine-3,5-dione]
7 | CCn1sc(=O)n(Cc2ccccc2)c1=O
2 | Cn1sc(=O)n(-c2ccccc2)c1=O [2-methyl-4-phenyl-1,2,4-thiadiazolidine-3,5-dione]
10 | CCn1c(=O)sn(C2CCCCC2)c1=O [2-Cyclohexyl-4-ethyl-1,2,4-thiadiazolidine-3,5-dione]
> 100 | Cn1sc(=O)n(C2CCCCC2)c1=O [4-Cyclohexyl-2-methyl-1,2,4-thiadiazolidine-3,5-dione]
4 | Cn1sc(=O)n(-c2cccc(Br)c2)c1=O [4-(3-Bromophenyl)-2-methyl-1,2,4-thiadiazolidine-3,5-dione]
3 | Cn1sc(=O)n(-c2ccc(Br)cc2)c1=O [4-(4-Bromophenyl)-2-methyl-1,2,4-thiadiazolidine-3,5-dione]
6 | Cn1sc(=O)n(-c2ccccc2Br)c1=O [4-(2-Bromophenyl)-2-methyl-1,2,4-thiadiazolidine-3,5-dione]
35 | CCn1c(=O)sn(C(C)C)c1=O [4-ethyl-2-(propan-2-yl)-1,2,4-thiadiazolidine-3,5-dione]
5 | CCn1c(=O)sn(C)c1=O [4-Ethyl-2-methyl-1,2,4-thiadiazolidine-3,5-dione]
25 | CCn1sc(=O)n(CC)c1=O [2,4-Diethyl-1,2,4-thiadiazolidine-3,5-dione]

— BindingDB's records for doi:10.1021/jm011020u (Instituto De Quimica Medica (Csic), 2002)
